In the supplement of paper PMC10307832:

Key:
Assay in all cases: relative viability (nuclei count vs DMSO), 5 days (fraction); higher = more cells survive
XMD8-85 + OSI-027 = compound: CN1CCN(CC1)C2=CC(=C(C=C2)NC3=NC=C4C(=N3)N(C5=CC=CC=C5C(=O)N4C)C)OC [XMD8-85] + COc1cccc2cc(-c3nc([C@H]4CC[C@H](C(=O)O)CC4)n4ncnc(N)c34)[nH]c12 [OSI-027] (partner 0.5 µM)
In short: (§1)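 Medians of duplicate plates are given as relative viability. That measure is the nuclei count in treated wells divided by the count in vehicle wells. Counts were taken on 4× images of lung cancer cell lines in 1536-well plates, 5 days after pin-tool dosing the day after seeding with one drug alone or a fixed anchor-drug dose plus five library-drug doses (not always all listed) in √10 steps.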

XMD8-85 + Alpelisib = compound: CN1CCN(CC1)C2=CC(=C(C=C2)NC3=NC=C4C(=N3)N(C5=CC=CC=C5C(=O)N4C)C)OC [XMD8-85] + Cc1nc(NC(=O)N2CCC[C@H]2C(N)=O)sc1-c1ccnc(C(C)(C)C(F)(F)F)c1 [Alpelisib] (partner 2 µM)
In short: as §1

XMD8-85 + Decitabine = compound: CN1CCN(CC1)C2=CC(=C(C=C2)NC3=NC=C4C(=N3)N(C5=CC=CC=C5C(=O)N4C)C)OC [XMD8-85] + Nc1ncn([C@H]2C[C@H](O)[C@@H](CO)O2)c(=O)n1 [Decitabine] (partner 2 µM)
In short: as §1

4EGI-1 + Dasatinib = compound: O=C(O)C(Cc1ccccc1[N+](=O)[O-])=NNc1nc(-c2ccc(Cl)c(Cl)c2)cs1 (mixture of isomers) [4EGI-1] + Cc1nc(Nc2ncc(C(=O)Nc3c(C)cccc3Cl)s2)cc(N2CCN(CCO)CC2)n1 [Dasatinib] (partner 0.075 µM)
In short: as §1

Q: Which results are given for NCI-H1792?
A: relative viability (XMD8-85 + OSI-027; first compound 0.253 µM): 0.856; relative viability (XMD8-85 + OSI-027; first compound 2.53 µM): 0.981; relative viability (XMD8-85 + OSI-027; first compound 8 µM): 0.896; relative viability (XMD8-85 + Alpelisib; first compound 0.08 µM): 0.627; relative viability (XMD8-85 + Alpelisib; first compound 0.253 µM): 0.642; relative viability (XMD8-85 + Alpelisib; first compound 2.53 µM): 0.562; relative viability (XMD8-85 + Alpelisib; first compound 8 µM): 0.723; relative viability (XMD8-85 + Decitabine; first compound 0.253 µM): 0.468; relative viability (XMD8-85 + Decitabine; first compound 0.8 µM): 0.525; relative viability (XMD8-85 + Decitabine; first compound 2.53 µM): 0.504; relative viability (XMD8-85 + Decitabine; first compound 8 µM): 0.361; relative viability (4EGI-1 + Dasatinib; first compound 0.5 µM): 1.03; relative viability (4EGI-1 + Dasatinib; first compound 1.581 µM): 0.797; relative viability (4EGI-1 + Dasatinib; first compound 5 µM): 0.74; relative viability (4EGI-1 + Dasatinib; first compound 15.81 µM): 0.712; relative viability (4EGI-1 + Dasatinib; first compound 50 µM): 0.671
